Reference: BindingDB's records for doi:10.1016/j.bmcl.2008.06.095 (Tokyo University of Agriculture and Technology, 2008)

Experiment: Antagonist activity at VDR in human HL60 cells assessed as effect on 1,25-(OH)2-D3-induced cell differentiation by NBT assay

Row | IC50 | Compound
1 | > 3 µM | C=C1/C(=C\C=C2/CCC[C@]3(C)[C@@H]([C@H](C)C[C@@H]4C[C@@](C)(O)C(=O)N4Cc4cc(OC)cc(OC)c4)CC[C@@H]23)C[C@@H](O)C[C@@H]1O [(3R,5R)-1-(3,5-dimethoxybenzyl)-5-((R)-2-((1R,3aS,7aR)-4-(2-((3S,5R)-3,5-dihydroxy-2-methylenecyclohexylidene)ethylidene)-7a-methyl-octahydro-1H-inden-1-yl)propyl)-3-hydroxy-3-methylpyrrolidin-2-one]
2 | > 3 µM | C=C1/C(=C\C=C2/CCC[C@]3(C)[C@@H]([C@H](C)C[C@H]4C[C@@](C)(O)C(=O)N4Cc4cc(OC)cc(OC)c4)CC[C@@H]23)C[C@@H](O)C[C@@H]1O [(3R,5S)-1-(3,5-dimethoxybenzyl)-5-((R)-2-((1R,3aS,7aR)-4-(2-((3S,5R)-3,5-dihydroxy-2-methylenecyclohexylidene)ethylidene)-7a-methyl-octahydro-1H-inden-1-yl)propyl)-3-hydroxy-3-methylpyrrolidin-2-one]
3 | > 3 µM | C=C1/C(=C\C=C2/CCC[C@]3(C)[C@@H]([C@H](C)C[C@@H]4C[C@](C)(O)C(=O)N4Cc4cc(OC)cc(OC)c4)CC[C@@H]23)C[C@@H](O)C[C@@H]1O [(3S,5R)-1-(3,5-dimethoxybenzyl)-5-((R)-2-((1R,3aS,7aR)-4-(2-((3S,5R)-3,5-dihydroxy-2-methylenecyclohexylidene)ethylidene)-7a-methyl-octahydro-1H-inden-1-yl)propyl)-3-hydroxy-3-methylpyrrolidin-2-one]
4 | 0.09 µM | C=C1/C(=C\C=C2/CCC[C@]3(C)[C@@H]([C@H](C)C[C@H]4C[C@](C)(O)C(=O)N4Cc4cc(OCC)cc(OCC)c4)CC[C@@H]23)C[C@@H](O)C[C@@H]1O [(3S,5S)-1-(3,5-diethoxybenzyl)-5-((R)-2-((1R,3aS,7aR)-4-(2-((3S,5R)-3,5-dihydroxy-2-methylenecyclohexylidene)ethylidene)-7a-methyl-octahydro-1H-inden-1-yl)propyl)-3-hydroxy-3-methylpyrrolidin-2-one]
5 | 0.3 µM | C=C1/C(=C\C=C2/CCC[C@]3(C)[C@@H]([C@H](C)C[C@H]4C[C@](C)(O)C(=O)N4Cc4cc(OC)cc(OC)c4)CC[C@@H]23)C[C@@H](O)C[C@@H]1O [(3S,5S)-1-(3,5-dimethoxybenzyl)-5-((R)-2-((1R,3aS,7aR)-4-(2-((3S,5R)-3,5-dihydroxy-2-methylenecyclohexylidene)ethylidene)-7a-methyl-octahydro-1H-inden-1-yl)propyl)-3-hydroxy-3-methylpyrrolidin-2-one]
6 | 0.86 µM | C=C1/C(=C\C=C2/CCC[C@]3(C)[C@@H]([C@H](C)C[C@H]4C[C@](C)(O)C(=O)N4CCc4cc(OC)cc(OC)c4)CC[C@@H]23)C[C@@H](O)C[C@@H]1O [(3S,5S)-1-(3,5-dimethoxyphenethyl)-5-((R)-2-((1R,3aS,7aR)-4-(2-((3S,5R)-3,5-dihydroxy-2-methylenecyclohexylidene)ethylidene)-7a-methyl-octahydro-1H-inden-1-yl)propyl)-3-hydroxy-3-methylpyrrolidin-2-one]
7 | 0.18 µM | C=C1/C(=C\C=C2/CCC[C@]3(C)[C@@H]([C@H](C)C[C@H]4C[C@](C)(O)C(=O)N4Cc4cc(OCCC)cc(OCCC)c4)CC[C@@H]23)C[C@@H](O)C[C@@H]1O [(3S,5S)-1-(3,5-dipropoxybenzyl)-5-((R)-2-((1R,3aS,7aR)-4-(2-((3S,5R)-3,5-dihydroxy-2-methylenecyclohexylidene)ethylidene)-7a-methyl-octahydro-1H-inden-1-yl)propyl)-3-hydroxy-3-methylpyrrolidin-2-one]
8 | 0.7 µM | C=C1/C(=C\C=C2/CCC[C@]3(C)[C@@H]([C@H](C)C[C@H]4C[C@](C)(O)C(=O)N4Cc4ccccc4)CC[C@@H]23)C[C@@H](O)C[C@@H]1O [(3S,5S)-1-benzyl-5-((R)-2-((1R,3aS,7aR)-4-(2-((3S,5R)-3,5-dihydroxy-2-methylenecyclohexylidene)ethylidene)-7a-methyl-octahydro-1H-inden-1-yl)propyl)-3-hydroxy-3-methylpyrrolidin-2-one]
9 | 0.78 µM | C=C1/C(=C\C=C2/CCC[C@]3(C)[C@@H]([C@H](C)C[C@H]4C[C@](C)(O)C(=O)N4CCCc4cc(OC)cc(OC)c4)CC[C@@H]23)C[C@@H](O)C[C@@H]1O [(3S,5S)-5-((R)-2-((1R,3aS,7aR)-4-(2-((3S,5R)-3,5-dihydroxy-2-methylenecyclohexylidene)ethylidene)-7a-methyl-octahydro-1H-inden-1-yl)propyl)-1-(3-(3,5-dimethoxyphenyl)propyl)-3-hydroxy-3-methylpyrrolidin-2-one]
10 | 2.2 µM | C=C1/C(=C\C=C2/CCC[C@]3(C)[C@@H]([C@H](C)C[C@H]4C[C@](C)(O)C(=O)N4CCCc4ccccc4)CC[C@@H]23)C[C@@H](O)C[C@@H]1O [(3S,5S)-5-((R)-2-((1R,3aS,7aR)-4-(2-((3S,5R)-3,5-dihydroxy-2-methylenecyclohexylidene)ethylidene)-7a-methyl-octahydro-1H-inden-1-yl)propyl)-3-hydroxy-3-methyl-1-(3-phenylpropyl)pyrrolidin-2-one]
11 | 0.39 µM | C=C1/C(=C\C=C2/CCC[C@]3(C)[C@@H]([C@H](C)C[C@H]4C[C@](C)(O)C(=O)N4CCCCc4ccccc4)CC[C@@H]23)C[C@@H](O)C[C@@H]1O [(3S,5S)-5-((R)-2-((1R,3aS,7aR)-4-(2-((3S,5R)-3,5-dihydroxy-2-methylenecyclohexylidene)ethylidene)-7a-methyl-octahydro-1H-inden-1-yl)propyl)-3-hydroxy-3-methyl-1-(4-phenylbutyl)pyrrolidin-2-one]
12 | 0.194 µM | C=C1/C(=C\C=C2/CCC[C@]3(C)[C@@H]([C@H](C)C[C@H]4C[C@](C)(O)C(=O)N4CCc4ccccc4)CC[C@@H]23)C[C@@H](O)C[C@@H]1O [(3S,5S)-5-((R)-2-((1R,3aS,7aR)-4-(2-((3S,5R)-3,5-dihydroxy-2-methylenecyclohexylidene)ethylidene)-7a-methyl-octahydro-1H-inden-1-yl)propyl)-3-hydroxy-3-methyl-1-phenethylpyrrolidin-2-one]

Row | Compound | IC50
13 | C=C1/C(=C\C=C2/CCC[C@]3(C)[C@@H]([C@H](C)C[C@H]4C[C@](C)(O)C(=O)N4Cc4cc(OCCCC)cc(OCCCC)c4)CC[C@@H]23)C[C@@H](O)C[C@@H]1O [(3S,5S)-1-(3,5-dibutoxybenzyl)-5-((R)-2-((1R,3aS,7aR)-4-(2-((3S,5R)-3,5-dihydroxy-2-methylenecyclohexylidene)ethylidene)-7a-methyl-octahydro-1H-inden-1-yl)propyl)-3-hydroxy-3-methylpyrrolidin-2-one] | 0.54 µM
